This is an account of results in US20260183274A1, “PDK1 REGULATORY COMPOUND AND COMPOSITION CONTAINING THE SAME” (PROVIBIO CO., LTD., priority 2024, published 2026).

The test system of the assay is T cells isolated from mouse spleens. Description: T cell proliferation inhibition (CFSE flow cytometry, anti-CD3/anti-CD28 stimulation). To be noted: mouse spleen T cells, 3 days; for inhibition at 0.01 µM / inhibition at 0.1 µM / inhibition at 1 µM / inhibition at 10 µM / inhibition at 30 µM / inhibition at 50 µM: Mus musculus, T-cell, 72 h, read-out: Proliferation inhibition rate (%). The format is cell-based. The method, then:
To verify the T cell proliferation inhibitory effect of the compounds according to the present invention, the following experiment was performed based on flow cytometry analysis using carboxyfluorescein diacetate succinimidyl ester (CFSE), a fluorescent dye that binds to intracellular molecules via covalent bonds.
Spleens were extracted from 7-week-old C57BL/6 mice, ground, and then separated into single cells using a strainer (40 μm pore size, SPL). Red blood cells were removed using ACK (Ammonium-Chloride-Potassium) lysis buffer to isolate white blood cells.
Finally, using a MACS Magnetic Stand and LS column, T cells were isolated from the spleen.
The T cells isolated from the spleen were resuspended in 1 mL of free medium (RPMI-1640+200 U/mL penicillin+200 μg/mL streptomycin), and 0.3 μL of CFSE (10 mM) was added. The mixture was incubated at 37° C. for 5 minutes.
Free medium (10 mL) was added to stop the reaction, and the cells were centrifuged to obtain the cell pellet.
RPMI 1640 medium containing 10% FBS, 100 U/mL penicillin, 100 μg/mL streptomycin, and resuspended the cells. The cells were then seeded into a 96-well plate at a density of 2×10^5 cells per well and activated with CD3 and CD28 antibodies (0.5 μg/mL each) to activate T cells.
The compound diluted in DMSO was added at concentrations of 10 nM, 100 nM, 1 μM, 10 μM, 30 μM, and 50 μM, with three wells per concentration, and cultured at 37° C. and 5% CO2 for three days. The cells were then analyzed using a FACS Canto instrument.
The proliferation inhibition rate (%) was calculated using the following formula: […]

For `CC1(C)CCN(CCCCCCCCCCCCNC(=O)c2cccnc2N)CC1` [Compound 102, 2-Amino-N-(12-(4,4-dimethylpiperidin-1-yl)dodecyl)nicotinamide], the inhibition at 0.01 µM (compound 10 nM) was -4.53%. Also, for the setting “compound 100 nM”, the inhibition at 0.1 µM is 100%. In addition, the inhibition at 1 µM (compound 1 μM) came to 100%. In addition, the inhibition at 10 µM (compound 10 μM) stood at 100%. For the same molecule, the inhibition at 30 µM (compound 30 μM) stood at 100%. In addition, where the note is “compound 50 μM”, the inhibition at 50 µM worked out at 100%.

In the case of `C=CCN(C)CCCCCCCCCCCCNC(=O)c1cccnc1N` [Compound 96, N-(12-(allyl(methyl)amino)dodecyl)-2-aminonicotinamide], for the setting “compound 10 nM”, the inhibition at 0.01 µM was -0.58%. Further, for the setting “compound 100 nM”, the inhibition at 0.1 µM was 100%. For the same molecule, where the note is “compound 1 μM”, the inhibition at 1 µM was 100%. Further, the inhibition at 10 µM (compound 10 μM) came out at 100%. Besides, for the setting “compound 30 μM”, the inhibition at 30 µM is 100%. Moreover, where the note is “compound 50 μM”, the inhibition at 50 µM is 100%.

`COCCN1CCN(CCCCCCCCCCCCNC(=O)c2cccnc2N)CC1` [Compound 95, 2-amino-N-(12-(4-(2-methoxyethyl)piperazin-1-yl)dodecyl)nicotinamide]: the inhibition at 0.01 µM (compound 10 nM) was 94.4%. The inhibition at 0.1 µM (compound 100 nM) was found to be 100%. Also, the inhibition at 1 µM (compound 1 μM) came out at 100%. For the same molecule, the inhibition at 10 µM (compound 10 μM) was found to be 100%. In addition, the inhibition at 30 µM (compound 30 μM) is 100%. For the same molecule, the inhibition at 50 µM (compound 50 μM) is 100%.

With `Nc1ncccc1C(=O)NCCCCCCCCCCCCN1CCN(C(=O)C2CC2)CC1` [Compound 99, 2-amino-N-(12-(4-(cyclopropanecarbonyl)piperazin-1-yl)dodecyl)nicotinamide], the inhibition at 0.01 µM (compound 10 nM) was -12.1%. Moreover, the inhibition at 0.1 µM (compound 100 nM) is 100%. The inhibition at 1 µM (compound 1 μM) amounted to 100%. The inhibition at 10 µM (compound 10 μM) stood at 100%. Moreover, the inhibition at 30 µM (compound 30 μM) was 100%. Besides, under “compound 50 μM”, the inhibition at 50 µM turned out to be 100%.

Consider `CC(C)(C)OC(=O)NC1CCN(CCCCCCCCCCCCNC(=O)c2cccnc2N)CC1` [Compound 101, tert-Butyl (1-(12-(2-aminonicotinamido)dodecyl)piperidin-4-yl) carbamate], for which the “Proliferation inhibition rate (%)” value is on record as −0.15% (compound 10 nM); 100.00% (compound 100 nM); 100.00% (compound 1 μM); 100.00% (compound 10 μM); 100.00% (compound 30 μM); 100.00% (compound 50 μM).

With `COC1CCN(CCCCCCCCCCCCNC(=O)c2cccnc2N)CC1` [Compound 94, 2-amino-N-(12-(4-methoxypiperidin-1-yl)dodecyl) nicotinamide], the “Proliferation inhibition rate (%)” value (compound 10 nM) was −25.44%; the “Proliferation inhibition rate (%)” value (compound 100 nM) is given as 100.00%; the “Proliferation inhibition rate (%)” value (compound 1 μM) was 100.00%; the “Proliferation inhibition rate (%)” value (compound 10 μM) is recorded as 100.00%; the “Proliferation inhibition rate (%)” value (compound 30 μM) is 100.00%; the “Proliferation inhibition rate (%)” value (compound 50 μM) is 100.00%.

Regarding `CCNCCCCCCCCCCCCNC(=O)c1cccnc1N` [Compound 98, 2-amino-N-(12-(ethylamino)dodecyl)nicotinamide], where the note is “compound 10 nM”, the inhibition at 0.01 µM is -4.82%. For the setting “compound 100 nM”, the inhibition at 0.1 µM is -3.95%. Besides, the inhibition at 1 µM (compound 1 μM) came to 100%. Besides, the inhibition at 10 µM (compound 10 μM) amounted to 100%. For the same molecule, under “compound 30 μM”, the inhibition at 30 µM was determined as 100%. Also, for the setting “compound 50 μM”, the inhibition at 50 µM was determined as 100%.

Regarding `Nc1ncccc1C(=O)NCCCCCCCCCCCCn1ccc2c(Cl)c(I)cnc21` [Compound 109, 2-Amino-N-(12-(4-chloro-5-iodo-1H-pyrrolo[2,3-b]pyridin-1-yl)dodecyl)nicotinamide], where the note is “compound 10 nM”, the inhibition at 0.01 µM was 0.15%. The inhibition at 0.1 µM (compound 100 nM) worked out at 8.48%. Further, where the note is “compound 1 μM”, the inhibition at 1 µM was 20.9%. Besides, for the setting “compound 10 μM”, the inhibition at 10 µM was 100%. Further, where the note is “compound 30 μM”, the inhibition at 30 µM worked out at 100%. Also, the inhibition at 50 µM (compound 50 μM) turned out to be 100%.

As to `Cc1nccn1-c1cccc(C(=O)NCCCCCCCCCCCCN2CCN(C)CC2)c1` [Compound 207, 3-(2-methyl-1H-imidazol-1-yl)-N-(12-(4-methylpiperazin-1-yl)dodecyl)benzamide], the inhibition at 0.01 µM (compound 10 nM) is -5.35%. For the same molecule, the inhibition at 0.1 µM (compound 100 nM) is -3.91%. Further, where the note is “compound 1 μM”, the inhibition at 1 µM is -3.04%. Besides, the inhibition at 10 µM (compound 10 μM) came to 100%. Besides, under “compound 30 μM”, the inhibition at 30 µM is 100%. Also, where the note is “compound 50 μM”, the inhibition at 50 µM came out at 100%.

On to `CC1CN(CCCCCCCCCCCCNC(=O)c2cccnc2N)C(C)CN1.Cl` (stereo not drawn) [Compound 36, 2-Amino-N-(12-(2,5-dimethylpiperazin-1-yl)dodecyl) nicotinamide hydrochloride], for which the “Proliferation inhibition rate (%)” value reads like this: (compound 10 nM) −38.89%; (compound 100 nM) 100.00%; (compound 1 μM) 100.00%; (compound 10 μM) 100.00%; (compound 30 μM) 100.00%; (compound 50 μM) 100.00%.

On to `CN1CCN(CCCCCCCCCCCCNC(=O)c2ccncc2Cl)CC1` [Compound 199, 3-Chloro-N-(12-(4-methylpiperazin-1-yl)dodecyl)isonicotinamide], for which the inhibition at 0.01 µM (compound 10 nM) came to 0%. In addition, under “compound 100 nM”, the inhibition at 0.1 µM came out at 0%. Where the note is “compound 1 μM”, the inhibition at 1 µM stood at 0%. Further, the inhibition at 10 µM (compound 10 μM) was 40%. Further, the inhibition at 30 µM (compound 30 μM) is 100%. The inhibition at 50 µM (compound 50 μM) came to 100%.

For the molecule `COc1ncccc1C(=O)NCCCCCCCCCCCCN1CCN(C)CC1` [Compound 200, 2-Methoxy-N-(12-(4-methylpiperazin-1-yl)dodecyl)nicotinamide], the inhibition at 0.01 µM (compound 10 nM) turned out to be 0%. Besides, the inhibition at 0.1 µM (compound 100 nM) worked out at 0%. Moreover, the inhibition at 1 µM (compound 1 μM) was found to be 0%. In addition, the inhibition at 10 µM (compound 10 μM) is 80%. Moreover, where the note is “compound 30 μM”, the inhibition at 30 µM worked out at 100%. Moreover, for the setting “compound 50 μM”, the inhibition at 50 µM stood at 100%.

In the case of `CN1CCN(CCCCCCCCCCCCNC(=O)c2ccccc2Oc2ccccc2)CC1` [Compound 214, N-(12-(4-methylpiperazin-1-yl)dodecyl)-2-phenoxybenzamide], under “compound 10 nM”, the inhibition at 0.01 µM came to 2.32%. The inhibition at 0.1 µM (compound 100 nM) is 12.2%. For the same molecule, the inhibition at 1 µM (compound 1 μM) is 17.4%. Also, the inhibition at 10 µM (compound 10 μM) is 100%. Also, the inhibition at 30 µM (compound 30 μM) came out at 100%. Moreover, the inhibition at 50 µM (compound 50 μM) was found to be 100%.

As for `Cc1ccc(C(=O)NCCCCCCCCCCCCN2CCN(C)CC2)nc1` [Compound 202, 5-Methyl-N-(12-(4-methylpiperazin-1-yl)dodecyl)picolinamide], where the note is “compound 10 nM”, the inhibition at 0.01 µM was determined as 4.05%. Besides, the inhibition at 0.1 µM (compound 100 nM) came to 13.2%. The inhibition at 1 µM (compound 1 μM) turned out to be 19%. Also, the inhibition at 10 µM (compound 10 μM) worked out at 100%. Where the note is “compound 30 μM”, the inhibition at 30 µM was 100%. Besides, the inhibition at 50 µM (compound 50 μM) came out at 100%.

Regarding `CN1CCN(CCCCCCCCCCCCNC(=O)c2ccc(-c3ncn[nH]3)cc2)CC1` [Compound 208, N-(12-(4-methylpiperazin-1-yl)dodecyl)-4-(1H-1,2,4-triazol-5-yl)benzamide], the inhibition at 0.01 µM (compound 10 nM) came out at 2.46%. The inhibition at 0.1 µM (compound 100 nM) was -0.58%. Also, the inhibition at 1 µM (compound 1 μM) stood at 10.6%. Further, for the setting “compound 10 μM”, the inhibition at 10 µM amounted to 100%. In addition, the inhibition at 30 µM (compound 30 μM) worked out at 100%. In addition, the inhibition at 50 µM (compound 50 μM) is 100%.

On to `Nc1ncccc1C(=O)NCCCCCCCCCCCCN1CCC(C(F)F)CC1` [Compound 107, 2-Amino-N-(12-(4-(difluoromethyl)piperidin-1-yl)dodecyl)nicotinamide], for which the inhibition at 0.01 µM (compound 10 nM) was -35.2%. For the setting “compound 100 nM”, the inhibition at 0.1 µM amounted to 100%. For the same molecule, the inhibition at 1 µM (compound 1 μM) worked out at 100%. Also, the inhibition at 10 µM (compound 10 μM) is 100%. The inhibition at 30 µM (compound 30 μM) worked out at 100%. For the setting “compound 50 μM”, the inhibition at 50 µM came to 100%.

For the molecule `Nc1ncccc1C(=O)NCCCCCCCCCCCCN1CCC2(CC1)CC2` [Compound 108, N-(12-(6-Azaspiro[2.5]octan-6-yl)dodecyl)-2-aminonicotinamide], the inhibition at 0.01 µM (compound 10 nM) stood at 0.88%. Also, where the note is “compound 100 nM”, the inhibition at 0.1 µM amounted to 28.5%. In addition, the inhibition at 1 µM (compound 1 μM) was found to be 100%. In addition, the inhibition at 10 µM (compound 10 μM) is 100%. Further, the inhibition at 30 µM (compound 30 μM) came to 100%. Besides, the inhibition at 50 µM (compound 50 μM) is 100%.

Take `CN(CCCCCCCCCCCCNC(=O)c1cccnc1N)C(C)(C)C` [Compound 53, 2-Amino-N-(12-(tert-butyl(methyl)amino)dodecyl) nicotinamide]: the “Proliferation inhibition rate (%)” value is −26.59% (compound 10 nM); 100.00% (compound 100 nM); 100.00% (compound 1 μM); 100.00% (compound 10 μM); 100.00% (compound 30 μM); 100.00% (compound 50 μM).
